33 compounds from patent publication US20250129027A1 (APOGEE PHARMACEUTICALS, INC., priority 2023, published 2025) can be followed below.

The target in one assay is human recombinant FAAH (Homo sapiens (Human), UniProt O00519). The assay is described as follows: In vitro inhibition of FAAH activity (fluorescent inhibitor screening kit, AMC arachidonoyl amide). Format: biochemical. The conditions noted are these: human recombinant FAAH; read-out: Inhibition on FAAH activity (IC50). The text has this:
The inhibitory effect of compounds of Formula (I-IV) on the activity of human recombinant FAAH was studied using a commercial inhibitor screening kit (Cayman Chemicals, Godlewski et al., 2010 [19]). In brief, FAAH hydrolyzes AMC arachidonoyl amide resulting in the release of the fluorescent product, while the inhibitor will inhibit the FAAH activity and thus reduce the fluorescent signal. The resulting fluorophore can be analyzed using an excitation wavelength of 340-360 nm and an emission wavelength of 450-465 nm by a plate reader (Synergy H1, Biotek). Inhibition is calculated as a percentage of the treated sample over the non-treated control based on the signal values, and where possible, a range of concentrations of compounds was tested to find the IC50 values (i.e. the concentration of compound that inhibited 50% FAAH activity).

The next assay addresses human recombinant MAGL (Homo sapiens (Human), UniProt Q99685). The assay can be described thus: In vitro inhibition of MAGL activity (inhibitor screening kit, 4-nitrophenylacetate). Format: biochemical. The note with it: human recombinant MAGL. The protocol:
The inhibitory effect of the compounds on activity of human recombinant MAGL was also studied using a commercial inhibitor screening kit (Cayman Chemicals). In brief, MAGL hydrolyzes 4-nitrophenylacetate resulting in a yellow product, 4-nitrophenol with an absorbance at 405-412 nm, while the inhibitor will inhibit the MAGL activity and thus reduce the yellow signal. The absorbance of the yellow product can be analyzed using the plate reader. Inhibition is calculated as a percentage of the treated sample over the non-treated MAGL control based on the signal values.

One may read the IC50 as the concentration that inhibits the measured activity by half.

Sequence of human recombinant FAAH (O00519 whole entry): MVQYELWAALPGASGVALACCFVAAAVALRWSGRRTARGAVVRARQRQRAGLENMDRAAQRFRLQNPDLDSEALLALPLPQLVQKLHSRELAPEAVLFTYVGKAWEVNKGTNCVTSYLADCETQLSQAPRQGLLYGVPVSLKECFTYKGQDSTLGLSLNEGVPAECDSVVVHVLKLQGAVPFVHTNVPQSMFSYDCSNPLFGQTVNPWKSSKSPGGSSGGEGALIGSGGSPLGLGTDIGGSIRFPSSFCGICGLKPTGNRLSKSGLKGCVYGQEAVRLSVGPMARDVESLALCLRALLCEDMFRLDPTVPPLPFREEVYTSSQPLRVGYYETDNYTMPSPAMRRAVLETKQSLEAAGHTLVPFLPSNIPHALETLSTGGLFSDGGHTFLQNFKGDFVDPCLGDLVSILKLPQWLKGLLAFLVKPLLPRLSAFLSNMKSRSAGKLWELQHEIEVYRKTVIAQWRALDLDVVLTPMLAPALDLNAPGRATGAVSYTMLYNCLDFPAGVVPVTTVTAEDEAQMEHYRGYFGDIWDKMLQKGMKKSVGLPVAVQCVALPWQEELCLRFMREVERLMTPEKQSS
Sequence of human recombinant MAGL (Q99685 whole entry): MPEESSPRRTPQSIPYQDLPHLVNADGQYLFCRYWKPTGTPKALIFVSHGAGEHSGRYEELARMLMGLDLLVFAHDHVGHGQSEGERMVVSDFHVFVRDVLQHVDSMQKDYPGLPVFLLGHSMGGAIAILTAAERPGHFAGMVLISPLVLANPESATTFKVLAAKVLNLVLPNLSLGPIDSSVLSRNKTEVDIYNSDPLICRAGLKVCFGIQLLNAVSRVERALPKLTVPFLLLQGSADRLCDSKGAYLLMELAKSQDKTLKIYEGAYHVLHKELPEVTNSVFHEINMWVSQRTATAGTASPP

For the compound `O=C(NC1CCCCCC1)Oc1cccc(-c2cncc(-c3nnco3)c2)c1` [Example 137, 3-(5-(1,3,4-oxadiazol-2-yl)pyridin-3-yl)phenyl cycloheptylcarbamate], the values for the IC50 on human recombinant FAAH and at human recombinant MAGL were 10 to 20 nM and more than 10000 nM, respectively.
On to `O=C(Nc1ccccc1)Oc1ccc(OC(F)(F)F)c(-c2cncc(-c3nnco3)c2)c1` [Example 203, 3-(5-(1,3,4-oxadiazol-2-yl)pyridin-3-yl)-4-(trifluoromethoxy)phenyl phenylcarbamate], for which the IC50 on human recombinant FAAH was more than 1000 nM; on human recombinant MAGL, more than 10000 nM.
Consider `O=C(NC1CCCCCC1)Oc1ccc(O)c(-c2cncc(-c3nnn[nH]3)c2)c1` [Example 249, 3-(5-(1H-tetrazol-5-yl)pyridin-3-yl)-4-hydroxyphenyl cycloheptylcarbamate], for which the IC50 was more than 1000 nM on human recombinant FAAH and more than 10000 nM on human recombinant MAGL.
On the same counts, the results for `O=C(NCc1ccccc1)Oc1ccc(O)c(-c2cncc(-c3nnn[nH]3)c2)c1` [Example 246, 3-(5-(1H-tetrazol-5-yl)pyridin-3-yl)-4-hydroxyphenyl benzylcarbamate] are more than 1000 nM and more than 10000 nM.
On the same counts, the results for `CCCCCCCCNC(=O)Oc1cc(-c2cncc(-c3ncco3)c2)ccc1OC` [Example 84, 2-methoxy-5-(5-(oxazol-2-yl)pyridin-3-yl)phenyl octylcarbamate] are 100 to 1000 nM and approximately 10000 nM.
For the compound `O=C(NC1CCCCC1)Oc1cccc(-c2cncc(-c3nncs3)c2)c1` [Example 211, 3-(5-(1,3,4-thiadiazol-2-yl)pyridin-3-yl)phenyl cyclohexylcarbamate], the concentration for half-maximal inhibition (IC50) at human recombinant FAAH is more than 1000 nM; on human recombinant MAGL, more than 10000 nM.
For `COc1ccc(OC(=O)NC2CCCC2)cc1-c1cncc(-c2ccno2)c1` [Example 112, 3-(5-(isoxazol-5-yl)pyridin-3-yl)-4-methoxyphenyl cyclopentylcarbamate], the half-inhibitory concentration (IC50) is approximately 100 nM on human recombinant FAAH and more than 10000 nM on human recombinant MAGL.
On to `COc1ccc(OC(=O)NC2CCCCC2)cc1-c1cncc(-c2ncco2)c1` [Example 81, 4-methoxy-3-(5-(oxazol-2-yl)pyridin-3-yl)phenyl cyclohexylcarbamate], for which the results for the IC50 at human recombinant FAAH and at human recombinant MAGL were 10 to 100 nM and more than 10000 nM, respectively.
For `CSc1ccc(OC(=O)NCc2ccccc2)cc1-c1cncc(-c2nnco2)c1` [Example 188, 3-(5-(1,3,4-oxadiazol-2-yl)pyridin-3-yl)-4-(methylthio)phenyl benzylcarbamate] the same measures were more than 1000 nM and more than 10000 nM.
As for `CCCCCCCNC(=O)Oc1cccc(-c2cncc(C(=O)NO)c2)c1` [Example 22, 3-(5-(hydroxycarbamoyl)pyridin-3-yl)phenyl heptylcarbamate], the IC50 at human recombinant FAAH was 10 to 1000 nM; at human recombinant MAGL it was more than 1000 nM.
Regarding `O=C(NC1CCCCCC1)Oc1cccc(-c2cncc(-c3ccno3)c2)c1` [Example 108, 3-(5-(isoxazol-5-yl)pyridin-3-yl)phenyl cycloheptylcarbamate], the values for the half-inhibitory concentration (IC50) at human recombinant FAAH and at human recombinant MAGL were 10 to 100 nM and more than 1000 nM, respectively.
In the case of `O=C(NCCCc1ccccc1)Oc1cccc(-c2cncc(-c3nnco3)c2)c1` [Example 136, 3-(5-(1,3,4-oxadiazol-2-yl)pyridine-3-yl)phenyl (3-phenylpropyl)carbamate], the IC50 on human recombinant FAAH was 10 to 100 nM; on human recombinant MAGL it was 10000 to 50000 nM.
Take `O=C(NC1CCCC1)Oc1cccc(-c2cncc(-c3nnco3)n2)c1` [Example 266, 3-(6-(1,3,4-oxadiazol-2-yl)pyrazin-2-yl)phenyl cyclopentylcarbamate]: the half-maximal inhibitory concentration (IC50) at human recombinant FAAH was 10 to 100 nM; on human recombinant MAGL it was 1000 to 10000 nM.
Regarding `Cc1cc(OC(=O)NC2CCCCCCC2)cc(-c2cncc(-c3ncco3)c2)c1` [Example 104, 3-methyl-5-(5-(oxazol-2-yl)pyridin-3-yl)phenyl cyclooctylcarbamate], the IC50 was 100 to 1000 nM on human recombinant FAAH and approximately 10000 nM on human recombinant MAGL.
With `CCCCCCCCNC(=O)Oc1ccc(OC)c(-c2cncc(-c3ncco3)c2)c1` [Example 78, 4-methoxy-3-(5-(oxazol-2-yl)pyridin-3-yl)phenyl octylcarbamate], the IC50 is 10 to 100 nM on human recombinant FAAH and 1000 to 10000 nM on human recombinant MAGL.
For `CCCCCCCCNC(=O)Oc1cccc(-c2cncc(C(=O)NO)c2)c1` [Example 23, 3-(5-(hydroxycarbamoyl)pyridin-3-yl)phenyl octylcarbamate], the results for the IC50 at human recombinant FAAH and on human recombinant MAGL were more than 1000 nM and more than 10000 nM, respectively.
Take `O=C(Oc1cccc(-c2cncc(-c3nnco3)c2)c1)N1CCOCC1` [Example 151, 3-(5-(1,3,4-oxadiazol-2-yl)pyridin-3-yl)phenyl morpholine-4-carboxylate]: the 50% inhibitory concentration (IC50) was 1000 to 10000 nM at human recombinant FAAH and more than 10000 nM at human recombinant MAGL.
In the case of `COc1ccc(OC(=O)NCC2CCCCC2)cc1-c1cncc(-c2ccc[nH]2)c1` [Example 42, 3-(5-(1H-pyrrol-2-yl)pyridin-3-yl)-4-methoxyphenyl (cyclohexylmethyl)carbamate], the IC50 was 100 to 1000 nM on human recombinant FAAH and approximately 10000 nM at human recombinant MAGL.
For `CC1CCC(NC(=O)Oc2cccc(-c3cc(-c4nnco4)ccn3)c2)CC1` (stereo not drawn) [Example 261, 3-(4-(1,3,4-oxadiazol-2-yl)pyridin-2-yl)phenyl (4-methylcyclohexyl)carbamate], the half-maximal inhibitory concentration (IC50) on human recombinant FAAH is 100 to 1000 nM; on human recombinant MAGL it was more than 1000 nM.
Take `O=C(NCc1ccccc1)Oc1ccc(O)c(-c2cncc(-c3ncn[nH]3)c2)c1` [Example 228, 3-(5-(1H-1,2,4-triazol-5-yl)pyridin-3-yl)-4-hydroxyphenyl benzylcarbamate]: the IC50 on human recombinant FAAH is 100 to 1000 nM; on human recombinant MAGL it was more than 10000 nM.
With `O=C(NCC1CCCCC1)Oc1ccc(O)c(-c2cncc(-c3nnn[nH]3)c2)c1` [Example 245, 3-(5-(1H-tetrazol-5-yl)pyridin-3-yl)-4-hydroxyphenyl (cyclohexylmethyl)carbamate], the 50% inhibitory concentration (IC50) was more than 1000 nM at human recombinant FAAH and more than 10000 nM on human recombinant MAGL.
Take `CCOC(=O)c1cncc(-c2cccc(OC(=O)NC3CCCC3)c2)c1` [Example 5, ethyl 5-(3-((cyclopentylcarbamoyl)oxy)phenyl)nicotinate]: the figures for the IC50 on human recombinant FAAH and at human recombinant MAGL were 10 to 100 nM and more than 10000 nM, respectively.
Regarding `CCCCCCCCNC(=O)Oc1ccc(O)c(-c2cncc(-c3nnn[nH]3)c2)c1` [Example 244, 3-(5-(1H-tetrazol-5-yl)pyridin-3-yl)-4-hydroxyphenyl octylcarbamate], the IC50 on human recombinant FAAH is 100 to 1000 nM; at human recombinant MAGL, more than 10000 nM.
For `CN(C(=O)Oc1cccc(-c2cncc(-c3nnco3)c2)c1)C1CCCCC1` [Example 142, 3-(5-(1,3,4-oxadiazol-2-yl)pyridin-3-yl)phenyl cyclohexyl(methyl)carbamate] the same measures were 1000 to 10000 nM and more than 10000 nM.
As for `CCCCCCCCCCCCCCNC(=O)Oc1cccc(-c2cncc(C(=O)OCC)c2)c1` [Example 4, ethyl 5-(3-((tetradecylcarbamoyl)oxy)phenyl)nicotinate], the values for the half-maximal inhibitory concentration (IC50) on human recombinant FAAH and at human recombinant MAGL were 1 to 10 nM and 1000 to 10000 nM, respectively.
For the compound `Cc1cc(OC(=O)NC2CCCCC2)cc(-c2cncc(-c3ncco3)c2)c1` [Example 101, 3-methyl-5-(5-(oxazol-2-yl)pyridin-3-yl)phenyl cyclohexylcarbamate], the concentration for half-maximal inhibition (IC50) at human recombinant FAAH is more than 1000 nM; at human recombinant MAGL, more than 10000 nM.
On to `O=C(NC1CCCC1)Oc1cccc(-c2cncc(-c3nncs3)c2)c1` [Example 210, 3-(5-(1,3,4-thiadiazol-2-yl)pyridin-3-yl)phenyl cyclopentylcarbamate], for which the figures for the concentration for half-maximal inhibition (IC50) on human recombinant FAAH and on human recombinant MAGL were approximately 100 nM and more than 10000 nM, respectively.
`CC1CCC(NC(=O)Oc2ccc(F)c(-c3cncc(-c4nnco4)c3)c2)CC1` (stereo not drawn) [Example 193, 3-(5-(1,3,4-oxadiazol-2-yl)pyridin-3-yl)-4-fluorophenyl (4-methylcyclohexyl)carbamate]: the IC50 is 10 to 100 nM on human recombinant FAAH and more than 10000 nM at human recombinant MAGL.
Turning to `CN(C)c1ccc(OC(=O)NCc2ccccc2)cc1-c1cncc(-c2nnco2)c1` [Example 182, 3-(5-(1,3,4-oxadiazol-2-yl)pyridin-3-yl)-4-(dimethylamino)phenyl benzylcarbamate], the IC50 was more than 1000 nM at human recombinant FAAH and more than 10000 nM on human recombinant MAGL.
On to `COc1ccc(OC(=O)NC2CCCCC2)cc1-c1cncc(-c2nnn[nH]2)c1` [Example 254, 3-(5-(1H-tetrazol-5-yl)pyridin-3-yl)-4-methoxyphenyl cyclohexylcarbamate], for which the IC50 is more than 1000 nM on human recombinant FAAH and more than 10000 nM on human recombinant MAGL.
As for `O=C(NCC1CCCCC1)Oc1cccc(-c2cncc(-c3ncco3)c2)c1` [Example 74, 3-(5-(oxazol-2-yl)pyridin-3-yl)phenyl (cyclohexylmethyl)carbamate], the IC50 at human recombinant FAAH was 10 to 100 nM; at human recombinant MAGL it was more than 1000 nM.
On to `CCCCCCCCNC(=O)Oc1cccc(-c2cncc(-c3ncn[nH]3)c2)c1` [Example 219, 3-(5-(1H-1,2,4-triazol-5-yl)pyridin-3-yl)phenyl octyl carbamate], for which the IC50 at human recombinant FAAH was 1 to 10 nM; at human recombinant MAGL it was approximately 10000 nM.
For the compound `Cc1cc(OC(=O)NC2CCCCCC2)cc(-c2cncc(-c3ncco3)c2)c1` [Example 103, 3-methyl-5-(5-(oxazol-2-yl)pyridin-3-yl)phenyl cycloheptylcarbamate], the half-inhibitory concentration (IC50) was 100 to 1000 nM on human recombinant FAAH and approximately 10000 nM at human recombinant MAGL.
